In patent publication US20240148723A1, “MYCOBACTERIUM TUBERCULOSIS COMPOSITIONS AND METHODS” (priority 2021, published 2024):
Values after ≈ are worked out from the molar mass of the structure shown. Values joined by “and” are separate entries in the source; they are usually repeats but may differ in a detail not shown here. Identical values can stand only once. “Also recorded” adds a separate entry of the source. Like-named read-outs stand apart in the source and are kept apart here.

What was measured:
M. tuberculosis H37Ra [1] = test: microbe, parasite or virus in culture; assay type: cell-based, Mycobacterium tuberculosis; conditions: for MIC: Mycobacterium tuberculosis, H37RA
M. tuberculosis = assay type: cell-based, Mycobacterium tuberculosis; conditions: pH 6.8
[2] = system: M. tuberculosis H37Ra (PZA^S); assay type: cell-based; conditions: test tubes, PZA-S1 medium, pH 6.8
[3] = system: M. tuberculosis H37Ra PZA^R #78; test: microbe, parasite or virus in culture; assay type: cell-based; conditions: Mycobacterium tuberculosis, 504 h, pH 6.8, read-out: MIC of PZA
M. tuberculosis H37Ra [4] = assay type: cell-based, Mycobacterium tuberculosis
M. tuberculosis H37Ra [5] = test: microbe, parasite or virus in culture; assay type: cell-based, Mycobacterium tuberculosis; conditions: for MIC: Mycobacterium tuberculosis, H37RA; remark: listed apart in the source
[6] = system: M. tuberculosis H37Ra PZA^R #98; test: microbe, parasite or virus in culture; assay type: cell-based; conditions: Mycobacterium tuberculosis, 504 h, pH 6.8, read-out: MIC of PZA
[7] = system: M. tuberculosis H37Ra PZA^R #6; test: microbe, parasite or virus in culture; assay type: cell-based; conditions: Mycobacterium tuberculosis, 504 h, pH 6.8, read-out: MIC of PZA
[8] = system: M. tuberculosis H37Ra PZA^R #106; test: microbe, parasite or virus in culture; assay type: cell-based; conditions: Mycobacterium tuberculosis, 504 h, pH 6.8, read-out: MIC of PZA
[9] = system: M. tuberculosis H37Ra PZA^R #186; test: microbe, parasite or virus in culture; assay type: cell-based; conditions: Mycobacterium tuberculosis, 504 h, pH 6.8, read-out: MIC of PZA
H37Ra = test: microbe, parasite or virus in culture; assay type: cell-based, Mycobacterium tuberculosis

`NNC(=O)c1ccncc1` [isoniazid] was tested, and the MIC (M. tuberculosis H37Ra [1]; 336 h, pH 6.8) was 0.02 µg/mL (≈ 0.146 µM) and the MIC (M. tuberculosis H37Ra [1]; pH 6.8) was 0.06 µg/mL (≈ 0.438 µM).

With `CC[C@@H](CO)NCCN[C@@H](CC)CO` [ethambutol] the MIC (M. tuberculosis H37Ra [1]; 336 h, pH 6.8) was 2 µg/mL (≈ 9.79 µM) and the MIC (M. tuberculosis H37Ra [1]; pH 6.8) was 1.6 µg/mL (≈ 7.83 µM).

Work on `CCc1cc(C(N)=S)ccn1` [ethionamide] yielded an MIC (M. tuberculosis H37Ra [1]; pH 6.8) of 0.5 µg/mL (≈ 3.01 µM).

For `COc1c(N2C[C@@H]3CCCN[C@@H]3C2)c(F)cc2c(=O)c(C(=O)O)cn(C3CC3)c12` [moxifloxacin], the MIC (M. tuberculosis H37Ra [1]; pH 6.8) was 0.25 µg/mL (≈ 0.623 µM).

Compound `CO[C@H]1/C=C/O[C@@]2(C)Oc3c(C)c(O)c4c(O)c(c(/C=N/N5CCN(C)CC5)c(O)c4c3C2=O)NC(=O)/C(C)=C\C=C\[C@H](C)[C@H](O)[C@@H](C)[C@@H](O)[C@@H](C)[C@H](OC(C)=O)[C@@H]1C` [rifampin] has an MIC (M. tuberculosis H37Ra [1]; 336 h, pH 6.8) of 0.13 µg/mL (≈ 0.158 µM) and an MIC (M. tuberculosis H37Ra [1]; pH 6.8) of 0.06 µg/mL (≈ 0.0729 µM).

Work on `[H]/N=C(/N)N[C@H]1[C@H](O)[C@@H](O)[C@H](O[C@@H]2O[C@@H](C)[C@](O)(C=O)[C@H]2O[C@@H]2O[C@@H](CO)[C@H](O)[C@@H](O)[C@@H]2NC)[C@@H](N/C(N)=N\[H])[C@@H]1O` [streptomycin] yielded an MIC (M. tuberculosis H37Ra [1]; pH 6.8) of 0.25 µg/mL (≈ 0.43 µM).

Compound `CC(=O)NC[C@H]1CN(c2ccc(N3CCOCC3)c(F)c2)C(=O)O1` [linezolid] has an MIC (M. tuberculosis H37Ra [1]; pH 6.8) of 2 µg/mL (≈ 5.93 µM).

In the case of `CCOC(=O)CCCCCCCCCCCCC1C=CCC1` (centres unmarked) [compound 38010], the “MIC in the media 7H9” value (M. tuberculosis) is reported as at least 30.85 µg/mL, the “MIC in the media L-Ala” value (M. tuberculosis) is reported as 3.86 µg/mL (≈ 12.5 µM) and the “MIC in the media SBA” value (M. tuberculosis) is reported as 1.93 µg/mL (≈ 6.26 µM). For the same compound, the “MIC in the media SLac” value (M. tuberculosis) was 1.93 µg/mL (≈ 6.26 µM).

With `NC(=O)c1cnccn1` [PZA, Pyrazinamide] the “concentration of PZA at which growth was inhibited” value [2] was 200 µg/mL, the MIC [3] was over 800 µg/mL and the “lawn formation of M. tuberculosis” value (M. tuberculosis H37Ra [4]; pH 6.6) was “no inhibition”. For the same compound, the “growth inhibition, paper disk” value (M. tuberculosis H37Ra [4]; pH 6.8) was “small inhibition zone; also recorded: strong growth inhibition”, the “lawn formation of M. tuberculosis” value (M. tuberculosis H37Ra [4]; pH 6.8) was “inhibited lawn formation” and the “MIC for PZA lower in acidic conditions (pH 6.5 and pH 6.0) than in neutral pH 7.0 conditions” value (M. tuberculosis H37Ra [5]) was 8 fold. It also gave an MIC (M. tuberculosis H37Ra [5]; pH 5.5, read-out: MIC for PZA) of under 12.5 µg/mL, an MIC (M. tuberculosis H37Ra [5]; pH 6, read-out: MIC for PZA) of 100 µg/mL (≈ 812 µM) and an MIC (M. tuberculosis H37Ra [5]; pH 7, read-out: MIC for PZA) of 25 µg/mL (≈ 203 µM). For the same compound, the MIC (M. tuberculosis H37Ra [5]; pH 8, read-out: MIC for PZA) was 200 µg/mL (≈ 1620 µM), the MIC (M. tuberculosis H37Ra [5]; read-out: MIC for PZA) was 200 µg/mL (≈ 1620 µM) and the growth (M. tuberculosis H37Ra [5]; pH 5) was “−”. The growth (M. tuberculosis H37Ra [5]; pH 5.5) was “− and +”, the growth (M. tuberculosis H37Ra [5]; pH 6) was “+ and −” and the growth (M. tuberculosis H37Ra [5]; pH 6.5) was “+ and −”. For the same compound, the growth (M. tuberculosis H37Ra [5]; pH 7) was “+ and −”, the growth (M. tuberculosis H37Ra [5]; pH 7.5) was “− and +” and the growth (M. tuberculosis H37Ra [5]; pH 8) was “− and +”. For the same compound, the growth (M. tuberculosis H37Ra [5]; pH 8.5) was “− and +”, the MIC [6] was over 800 µg/mL and the MIC (M. tuberculosis H37Ra [1]; 336 h, pH 6.8) was 200 µg/mL (≈ 1620 µM). The MIC (M. tuberculosis H37Ra [1]; pH 6.8, read-out: MICs of PZA) was 100 to 200 µg/mL (≈ 812 to 1620 µM), the MIC (M. tuberculosis H37Ra [1]; read-out: MIC of PZA) was 50 µg/mL and the “increase in MIC between 1/100 and 1/10 inoculum size dilutions” value (M. tuberculosis H37Ra [1]; pH 6.8) was 2-8 fold. For the same compound, the MIC [7] was over 800 µg/mL, the MIC [8] was over 800 µg/mL and the MIC [9] was over 800 µg/mL. For the same compound, the “Percentage of CFU to Z 0” value (H37Ra) was 1.20% and 0.14% and 0.02% and 0.08% and the MIC (H37Ra; Mycobacterium tuberculosis, H37RA, read-out: MIC of PZA) was 50 µg/mL.

With `C=C1C(=O)OC2CC1C(OC(C)=O)C/C(C)=C/CC/C(C)=C\CCC2(C)O` (centres unmarked) [compound 36437] the “MIC in the media 7H9” value (M. tuberculosis) was at least 37.65 µg/mL, the “MIC in the media L-Ala” value (M. tuberculosis) was 9.41 µg/mL (≈ 25 µM) and the “MIC in the media SBA” value (M. tuberculosis) was 4.71 µg/mL (≈ 12.5 µM). The “MIC in the media SLac” value (M. tuberculosis) was 2.35 µg/mL (≈ 6.24 µM).

With `NC(=O)c1cccc([N+](=O)[O-])c1` [compound 37327] the “MIC in the media 7H9” value (M. tuberculosis) was at least 66.44 µg/mL, the “MIC in the media L-Ala” value (M. tuberculosis) was 66.44 µg/mL (≈ 400 µM) and the “MIC in the media SBA” value (M. tuberculosis) was 33.22 µg/mL (≈ 200 µM). The “MIC in the media SLac” value (M. tuberculosis) was 66.44 µg/mL (≈ 400 µM).

`COc1nc2ccc(Br)cc2cc1[C@@H](c1ccccc1)[C@@](O)(CCN(C)C)c1cccc2ccccc12` [bedaquiline] gave an MIC (M. tuberculosis H37Ra [1]; pH 6.8) of 0.064 µg/mL (≈ 0.115 µM).

`COc1cc(N)c2ncccc2c1` [compound 13573] was tested, and the “MIC in the media 7H9” value (M. tuberculosis) was at least 8.71 µg/mL, the “MIC in the media L-Ala” value (M. tuberculosis) was 8.71 µg/mL (≈ 50 µM) and the “MIC in the media SBA” value (M. tuberculosis) was 8.71 µg/mL (≈ 50 µM). The “MIC in the media SLac” value (M. tuberculosis) was 17.42 µg/mL (≈ 100 µM).

With `Oc1ccc(Cl)cc1Sc1cc(Cl)ccc1O` [compound 55636] the “MIC in the media 7H9” value (M. tuberculosis) was at least 114.88 µg/mL, the “MIC in the media L-Ala” value (M. tuberculosis) was 1.80 µg/mL (≈ 6.27 µM) and the “MIC in the media SBA” value (M. tuberculosis) was 0.92 µg/mL (≈ 3.2 µM). For the same compound, the “MIC in the media SLac” value (M. tuberculosis) was 0.92 µg/mL (≈ 3.2 µM).

With `CCC(C)c1occ2c(O)c(C(=O)O)c(=O)cc-2c1C` (centres unmarked) [compound 114344] the “MIC in the media 7H9” value (M. tuberculosis) was at least 110.51 µg/mL, the “MIC in the media L-Ala” value (M. tuberculosis) was 27.63 µg/mL (≈ 100 µM) and the “MIC in the media SBA” value (M. tuberculosis) was 6.91 µg/mL (≈ 25 µM). For the same compound, the “MIC in the media SLac” value (M. tuberculosis) was 1.73 µg/mL (≈ 6.26 µM).

`O=C1CC(c2ccc(O)cc2)Oc2cc(O)cc(O)c21` (centres unmarked) [compound 34875] was tested, and the “MIC in the media 7H9” value (M. tuberculosis) was at least 27.23 µg/mL, the “MIC in the media L-Ala” value (M. tuberculosis) was 6.81 µg/mL (≈ 25 µM) and the “MIC in the media SBA” value (M. tuberculosis) was 6.81 µg/mL (≈ 25 µM). The “MIC in the media SLac” value (M. tuberculosis) was 1.70 µg/mL (≈ 6.24 µM).

With `O=c1[nH]c(=S)[nH]cc1Oc1ccc(Cl)cc1Cl` [compound 73753] the “MIC in the media 7H9” value (M. tuberculosis) was at least 115.66 µg/mL, the “MIC in the media L-Ala” value (M. tuberculosis) was 14.46 µg/mL (≈ 50 µM) and the “MIC in the media SBA” value (M. tuberculosis) was 14.46 µg/mL (≈ 50 µM). For the same compound, the “MIC in the media SLac” value (M. tuberculosis) was 1.81 µg/mL (≈ 6.26 µM).

`Nc1ccc(N=Nc2ccc(O)cc2)c(N)n1` [compound 108235] was tested, and the “MIC in the media 7H9” value (M. tuberculosis) was at least 22.92 µg/mL, the “MIC in the media L-Ala” value (M. tuberculosis) was 11.46 µg/mL (≈ 50 µM) and the “MIC in the media SBA” value (M. tuberculosis) was 11.46 µg/mL (≈ 50 µM). The “MIC in the media SLac” value (M. tuberculosis) was 5.73 µg/mL (≈ 25 µM).

For `CCCOC(=O)c1ccc(N)cc1` [compound 23516], the “MIC in the media 7H9” value (M. tuberculosis) was at least 800 µg/mL, the “MIC in the media L-Ala” value (M. tuberculosis) was 0.12 µg/mL (≈ 0.67 µM) and the “MIC in the media SBA” value (M. tuberculosis) was 0.25 µg/mL (≈ 1.39 µM). For the same compound, the “MIC in the media SLac” value (M. tuberculosis) was 0.25 µg/mL (≈ 1.39 µM).

With `COC1C=COC2(C)Oc3c(C)c(O)c4c(O)c(cc(O)c4c3C2=O)NC(=O)C(C)=CC=CC(C)C(O)C(C)C(O)C(C)C(OC(C)=O)C1C` (centres unmarked) [compound 133100] the “MIC in the media 7H9” value (M. tuberculosis) was at least 0.56 µg/mL, the “MIC in the media L-Ala” value (M. tuberculosis) was 0.56 µg/mL (≈ 0.803 µM) and the “MIC in the media SBA” value (M. tuberculosis) was 0.56 µg/mL (≈ 0.803 µM). The “MIC in the media SLac” value (M. tuberculosis) was 0.56 µg/mL (≈ 0.803 µM).

In the case of `COc1cccc2[nH]c(-c3ccccn3)nc12` [compound 320656], the “MIC in the media 7H9” value (M. tuberculosis) is reported as at least 45.06 µg/mL, the “MIC in the media L-Ala” value (M. tuberculosis) is reported as 5.63 µg/mL (≈ 25 µM) and the “MIC in the media SBA” value (M. tuberculosis) is reported as 11.27 µg/mL (≈ 50 µM). The “MIC in the media SLac” value (M. tuberculosis) was 1.41 µg/mL (≈ 6.26 µM).

With `CC(C)c1ccc2c(c1)CCC1C(C)(C(=O)O)CCCC21C` (centres unmarked) [compound 2952] the “MIC in the media 7H9” value (M. tuberculosis) was at least 30.04 µg/mL, the “MIC in the media L-Ala” value (M. tuberculosis) was 3.76 µg/mL (≈ 12.5 µM) and the “MIC in the media SBA” value (M. tuberculosis) was 7.51 µg/mL (≈ 25 µM). The “MIC in the media SLac” value (M. tuberculosis) was 1.88 µg/mL (≈ 6.26 µM).
